ChEMBL document CHEMBL3808308, “Synergistic potentiation of (-)-lomaiviticin A cytotoxicity by the ATR inhibitor VE-821” (Bioorg Med Chem Lett, 2016)

Tests used:
K562 [1] = assay: Potentiation of (-)-lomaiviticin A-induced cytotoxicity against human K562 cells assessed as (-)-lomaiviticin A ED50 at compound to (-)-lomaiviticin A ratio of 200:1 after 48 hrs by cell titer-glo luminescence assay (reference value: 0.23776 nM); assay type: functional; conditions: K562, 48 h, read-out: ED50 (the source's name)
K562 [2] = assay: Potentiation of 0.125 nM (-)-lomaiviticin A-induced cytotoxicity against human K562 cells assessed as fraction ratio affected at 0.025 uM after 48 hrs by cell titer-glo luminescence assay; assay type: functional
K562 [3] = assay: Potentiation of 2.5 nM (-)-lomaiviticin A-induced cytotoxicity against human K562 cells assessed as combination index at 0.5 uM after 48 hrs by cell titer-glo luminescence assay; assay type: functional
K562 [4] = assay: Potentiation of 0.025 nM (-)-lomaiviticin A-induced cytotoxicity against human K562 cells assessed as fraction ratio affected at 0.005 uM after 48 hrs by cell titer-glo luminescence assay; assay type: functional
[5] = Cytotoxicity against human K562 cells assessed as decrease in cell viability after 48 hrs by cell titer-glo luminescence assay; assay type: cell-based; conditions: read-out: ED50
K562 [6] = assay: Potentiation of 1.25 nM (-)-lomaiviticin A-induced cytotoxicity against human K562 cells assessed as fraction ratio affected at 0.25 uM after 48 hrs by cell titer-glo luminescence assay; assay type: functional
K562 [7] = assay: Potentiation of 1.25 nM (-)-lomaiviticin A-induced cytotoxicity against human K562 cells assessed as combination index at 0.25 uM after 48 hrs by cell titer-glo luminescence assay; assay type: functional
K562 [8] = assay: Cytotoxicity against human K562 cells assessed as decrease in cell viability after 24 to 48 hrs by cell titer-glo luminescence assay; assay type: cell-based
K562 [9] = assay: Potentiation of 0.25 nM (-)-lomaiviticin A-induced cytotoxicity against human K562 cells assessed as fraction ratio affected at 0.05 uM after 48 hrs by cell titer-glo luminescence assay; assay type: functional
K562 [10] = assay: Potentiation of 2.5 nM (-)-lomaiviticin A-induced cytotoxicity against human K562 cells assessed as fraction ratio affected at 0.5 uM after 48 hrs by cell titer-glo luminescence assay; assay type: functional
K562 [11] = assay: Potentiation of 7 nM (-)-lomaiviticin A-induced cytotoxicity against human K562 cells assessed as fraction ratio affected at 1.4 uM after 48 hrs by cell titer-glo luminescence assay; assay type: functional
K562 [12] = assay: Potentiation of 0.125 nM (-)-lomaiviticin A-induced cytotoxicity against human K562 cells assessed as combination index at 0.025 uM after 48 hrs by cell titer-glo luminescence assay; assay type: functional
K562 [13] = assay: Potentiation of 0.25 nM (-)-lomaiviticin A-induced cytotoxicity against human K562 cells assessed as combination index at 0.05 uM after 48 hrs by cell titer-glo luminescence assay; assay type: functional
K562 [14] = assay: Potentiation of 7 nM (-)-lomaiviticin A-induced cytotoxicity against human K562 cells assessed as combination index at 1.4 uM after 48 hrs by cell titer-glo luminescence assay; assay type: functional
K562 [15] = assay: Potentiation of 0.025 nM (-)-lomaiviticin A-induced cytotoxicity against human K562 cells assessed as combination index at 0.005 uM after 48 hrs by cell titer-glo luminescence assay; assay type: functional
K562 [16] = assay: Potentiation of 5x10'-4 uM (-)-lomaiviticin A-induced cytotoxicity against human K562 cells assessed as combination index at 5 uM after 48 hrs by cell titer-glo luminescence assay; assay type: functional
K562 [17] = assay: Potentiation of 5x10'-4 uM (-)-lomaiviticin A-induced cytotoxicity against human K562 cells assessed as fraction ratio affected at 5 uM after 48 hrs by cell titer-glo luminescence assay; assay type: functional
K562 [18] = assay: Potentiation of 5x10'-5 uM (-)-lomaiviticin A-induced cytotoxicity against human K562 cells assessed as combination index at 5 uM after 48 hrs by cell titer-glo luminescence assay; assay type: functional
K562 [19] = assay: Potentiation of 5x10'-4 uM (-)-lomaiviticin A-induced cytotoxicity against human K562 cells assessed as combination index at 5 uM after 24 hrs by cell titer-glo luminescence assay; assay type: functional
K562 [20] = assay: Potentiation of 0.0050 uM (-)-lomaiviticin A-induced cytotoxicity against human K562 cells assessed as fraction ratio affected at 5 uM after 48 hrs by cell titer-glo luminescence assay; assay type: functional
K562 [21] = assay: Potentiation of 0.0025 uM (-)-lomaiviticin A-induced cytotoxicity against human K562 cells assessed as combination index at 5 uM after 24 hrs by cell titer-glo luminescence assay; assay type: functional
K562 [22] = assay: Potentiation of 0.0050 uM (-)-lomaiviticin A-induced cytotoxicity against human K562 cells assessed as combination index at 5 uM after 48 hrs by cell titer-glo luminescence assay; assay type: functional
K562 [23] = assay: Potentiation of 5x10'-5 uM (-)-lomaiviticin A-induced cytotoxicity against human K562 cells assessed as combination index at 5 uM after 24 hrs by cell titer-glo luminescence assay; assay type: functional
K562 [24] = assay: Potentiation of 2.5x10'-5 uM (-)-lomaiviticin A-induced cytotoxicity against human K562 cells assessed as combination index at 5 uM after 24 hrs by cell titer-glo luminescence assay; assay type: functional
K562 [25] = assay: Potentiation of 2.5x10'-5 uM (-)-lomaiviticin A-induced cytotoxicity against human K562 cells assessed as fraction ratio affected at 5 uM after 48 hrs by cell titer-glo luminescence assay; assay type: functional
K562 [26] = assay: Potentiation of 0.0050 uM (-)-lomaiviticin A-induced cytotoxicity against human K562 cells assessed as combination index at 5 uM after 24 hrs by cell titer-glo luminescence assay; assay type: functional
K562 [27] = assay: Potentiation of 2.5x10'-4 uM (-)-lomaiviticin A-induced cytotoxicity against human K562 cells assessed as combination index at 5 uM after 24 hrs by cell titer-glo luminescence assay; assay type: functional
K562 [28] = assay: Potentiation of 0.0050 uM (-)-lomaiviticin A-induced cytotoxicity against human K562 cells assessed as fraction ratio affected at 5 uM after 24 hrs by cell titer-glo luminescence assay; assay type: functional
K562 [29] = assay: Cytotoxicity against human K562 cells assessed as decrease in cell viability up to 2.5 to 10 uM after 24 to 48 hrs by cell titer-glo luminescence assay; assay type: cell-based
K562 [30] = assay: Potentiation of 2.5x10'-5 uM (-)-lomaiviticin A-induced cytotoxicity against human K562 cells assessed as combination index at 5 uM after 48 hrs by cell titer-glo luminescence assay; assay type: functional
K562 [31] = assay: Potentiation of 0.0025 uM (-)-lomaiviticin A-induced cytotoxicity against human K562 cells assessed as combination index at 5 uM after 48 hrs by cell titer-glo luminescence assay; assay type: functional
K562 [32] = assay: Potentiation of 2.5x10'-4 uM (-)-lomaiviticin A-induced cytotoxicity against human K562 cells assessed as combination index at 5 uM after 48 hrs by cell titer-glo luminescence assay; assay type: functional
K562 [33] = assay: Potentiation of 2.5x10'-4 uM (-)-lomaiviticin A-induced cytotoxicity against human K562 cells assessed as fraction ratio affected at 5 uM after 48 hrs by cell titer-glo luminescence assay; assay type: functional
K562 [34] = assay: Potentiation of 0.0025 uM (-)-lomaiviticin A-induced cytotoxicity against human K562 cells assessed as fraction ratio affected at 5 uM after 48 hrs by cell titer-glo luminescence assay; assay type: functional

Work on `Cn1c(=O)n(-c2ccc(C(C)(C)C#N)cc2)c2c3cc(-c4cnc5ccccc5c4)ccc3ncc21` [DACTOLISIB] yielded an EC50 (K562 [1]) of 0.0202 µM, a Ratio (K562 [2]) of 0.4369 and a CI (K562 [3]) of 0.3901. It also gave a Ratio (K562 [4]) of 0.2836, a CC50 at 48 h [5] of 0.0489 µM and a Ratio (K562 [6]) of 0.9514. For the same compound, the CI (K562 [7]) was 0.3514, the Activity (K562 [8]) was “Dose-dependent effect” and the Ratio (K562 [9]) was 0.6128. It also gave a Ratio (K562 [10]) of 0.9739, a Ratio (K562 [11]) of 0.9929 and a CI (K562 [12]) of 2.3513. For the same compound, the CI (K562 [13]) was 0.8101, the CI (K562 [14]) was 0.3291 and the CI (K562 [15]) was 8.288.

With `O=C(c1cc(Cc2n[nH]c(=O)c3ccccc23)ccc1F)N1CCN(C(=O)C2CC2)CC1` [OLAPARIB] the CI (K562 [16]) was 0.358, the Ratio (K562 [17]) was 0.1238 and the CI (K562 [18]) was 29.2295. For the same compound, the CI (K562 [19]) was 31.4921, the Ratio (K562 [20]) was 0.557 and the CI (K562 [21]) was 45.0812. The CI (K562 [22]) was 2.076, the CI (K562 [23]) was 28.4346 and the CI (K562 [24]) was 0.182. It also gave a Ratio (K562 [25]) of 0.00109, a CI (K562 [26]) of 1.234 and a CI (K562 [27]) of 29.7935. For the same compound, the Ratio (K562 [28]) was 0.03638, the Activity (K562 [29]) was “Non-toxic” and the CI (K562 [30]) was 0.138. It also gave a CI (K562 [31]) of 1.277, a CI (K562 [32]) of 0.2699 and a Ratio (K562 [33]) of 0.02866. It also gave a Ratio (K562 [34]) of 0.3508.
